Data published in patent US9920032B2, “Heterocyclic compounds useful as pim kinase inhibitors” (Incyte Corporation, priority 2015, dated 2018).

Legend:
Type in all cases: biochemical
Pim-1 = Pim-1 (Homo sapiens (Human), UniProt P11309); assay: Pim-1 kinase assay; settings: 1 mM ATP; read-out: PIM1 IC50
Method in brief: (§1)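 Biotin-BAD peptide (0.05 μM) phosphorylated with 1 mM ATP by 2.5 pM Pim-1 or 1.25 pM Pim-3 in Tris pH 7.5/MgCl2/DTT buffer, 1 h at 25° C. EDTA stop; phospho-BAD (Ser112) antibody with streptavidin donor and Protein-A acceptor beads, 1 h dark at room temperature before AlphaScreen-type bead read.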

Pim-2 = Pim-2 (Homo sapiens (Human), UniProt Q9P1W9); assay: Pim-2 kinase assay; settings: 1 mM ATP; read-out: PIM2 IC50
Method in brief: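 TR-FRET assay with 1 nM enzyme, 0.05 μM fluorescein-CREBtide and 1 mM ATP in Tris pH 7.5 buffer with MgCl2, DTT, BSA and Tween-20, run 2 h at 25° C. Stopped with EDTA and Tb-labelled anti-CREB pSer133 antibody, then read after 30 min at room temperature.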

Pim-3 = Pim-3 (Homo sapiens (Human), UniProt Q86V86); assay: Pim-3 kinase assay; settings: 1 mM ATP; read-out: PIM3 IC50
Method in brief: as §1

Sequence of Pim-2 (Q9P1W9 whole entry): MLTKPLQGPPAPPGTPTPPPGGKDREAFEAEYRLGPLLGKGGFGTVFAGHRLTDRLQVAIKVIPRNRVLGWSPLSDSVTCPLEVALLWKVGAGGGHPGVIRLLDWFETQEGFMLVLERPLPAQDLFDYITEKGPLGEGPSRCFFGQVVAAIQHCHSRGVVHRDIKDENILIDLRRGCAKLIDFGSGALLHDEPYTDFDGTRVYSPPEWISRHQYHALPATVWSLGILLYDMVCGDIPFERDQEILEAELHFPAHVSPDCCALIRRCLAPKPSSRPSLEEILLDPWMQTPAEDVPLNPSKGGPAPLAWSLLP
Sequence of Pim-1 (P11309 whole entry): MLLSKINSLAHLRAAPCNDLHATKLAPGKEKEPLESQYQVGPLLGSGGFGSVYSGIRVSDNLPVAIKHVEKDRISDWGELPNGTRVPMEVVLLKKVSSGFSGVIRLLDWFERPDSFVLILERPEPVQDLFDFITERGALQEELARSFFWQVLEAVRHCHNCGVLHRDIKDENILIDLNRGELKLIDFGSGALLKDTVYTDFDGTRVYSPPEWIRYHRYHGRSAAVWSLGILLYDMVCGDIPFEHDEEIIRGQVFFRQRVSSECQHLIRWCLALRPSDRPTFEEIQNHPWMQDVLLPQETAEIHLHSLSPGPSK

C[C@@H]1C[C@H](N)C[C@H](c2ccncc2NC(=O)c2ccc(F)c3cc(N(C)C)cnc23)C1 [Example 25, N-{4-[(1R,3S,5S)-3-Amino-5-methylcyclohexyl]pyridin-3-yl}-3-(dimethylamino)-5-fluoroquinoline-8-carboxamide]
IC50 (Pim-1): ≤ 10 nM | IC50 (Pim-2): ≤ 100 nM | IC50 (Pim-3): ≤ 10 nM

C[C@@H]1C[C@H](N)C[C@H](c2ccncc2NC(=O)c2ccc(F)c3cc(N4CCCOCC4)cnc23)C1 [Example 102, N-(4-((1R,3S,5S)-3-Amino-5-methylcyclohexyl)pyridin-3-yl)-5-fluoro-3-(1,4-oxazepan-4-yl)quinoline-8-carboxamide]
IC50 (Pim-1): ≤ 10 nM | IC50 (Pim-2): ≤ 100 nM | IC50 (Pim-3): ≤ 10 nM

C[C@@H]1C[C@H](N)C[C@H](c2ccncc2NC(=O)c2ccc(F)c3cc(-c4ccc(C(F)(F)F)nc4)cnc23)C1 [Example 61, N-(4-((1R,3S,5S)-3-Amino-5-methylcyclohexyl)pyridin-3-yl)-5-fluoro-3-(6-(trifluoromethyl)pyridin-3-yl)quinoline-8-carboxamide]
IC50 (Pim-1): ≤ 10 nM | IC50 (Pim-2): 1000 to 10000 nM | IC50 (Pim-3): 10 to 50 nM

C[C@@H]1C[C@H](N)C[C@H](c2ccncc2NC(=O)c2ccc(F)c3cc(N4CCCC[C@H]4C)cnc23)C1 [Example 169, N-(4-((1R,3S,5S)-3-Amino-5-methylcyclohexyl)pyridin-3-yl)-5-fluoro-3-((R)-2-methylpiperidin-1-yl)quinoline-8-carboxamide]
IC50 (Pim-1): ≤ 10 nM | IC50 (Pim-2): ≤ 100 nM | IC50 (Pim-3): ≤ 10 nM

C[C@@H]1C[C@H](N)C[C@H](c2ccncc2NC(=O)c2ccc(F)c3cc(N4CCCN(C)C(=O)C4)cnc23)C1 [Example 135, N-(4-((1R,3S,5S)-3-Amino-5-methylcyclohexyl)pyridin-3-yl)-5-fluoro-3-(4-methyl-3-oxo-1,4-diazepan-1-yl)quinoline-8-carboxamide]
IC50 (Pim-1): ≤ 10 nM | IC50 (Pim-2): 100 to 1000 nM | IC50 (Pim-3): ≤ 10 nM

CC1CN(c2cnc3c(C(=O)Nc4cnccc4[C@@H]4C[C@H](C)C[C@H](N)C4)ccc(F)c3c2)CC(C)O1 (stereo partly drawn) [Example 37, N-(4-((1R,3S,5S)-3-Amino-5-methylcyclohexyl)pyridin-3-yl)-3-(2,6-dimethylmorpholino)-5-fluoroquinoline-8-carboxamide]
IC50 (Pim-1): ≤ 10 nM | IC50 (Pim-2): 1000 to 10000 nM | IC50 (Pim-3): 10 to 50 nM

CO[C@@H]1CCN(c2cnc3c(C(=O)Nc4cnccc4[C@@H]4C[C@H](C)C[C@H](N)C4)ccc(F)c3c2)[C@@H](C)C1 [Example 160, N-(4-((1R,3S,5S)-3-Amino-5-methylcyclohexyl)pyridin-3-yl)-5-fluoro-3-((2S,4R)-4-methoxy-2-methylpiperidin-1-yl)quinoline-8-carboxamide]
IC50 (Pim-1): ≤ 10 nM | IC50 (Pim-2): ≤ 100 nM | IC50 (Pim-3): ≤ 10 nM

C[C@@H]1C[C@H](N)C[C@H](c2ccncc2NC(=O)c2ccc(F)c3cc(N4C[C@@H](O)C[C@@H]4C)cnc23)C1 [Example 165, N-(4-((1R,3S,5S)-3-Amino-5-methylcyclohexyl)pyridin-3-yl)-5-fluoro-3-((2S,4S)-4-hydroxy-2-methylpyrrolidin-1-yl)quinoline-8-carboxamide]
IC50 (Pim-1): ≤ 10 nM | IC50 (Pim-2): ≤ 100 nM | IC50 (Pim-3): ≤ 10 nM

Cc1ccncc1N(C)c1cnc2c(C(=O)Nc3cnccc3[C@@H]3C[C@H](C)C[C@H](N)C3)ccc(F)c2c1 [Example 146, N-(4-((1R,3S,5S)-3-Amino-5-methylcyclohexyl)pyridin-3-yl)-5-fluoro-3-(methyl(4-methylpyridin-3-yl)amino)quinoline-8-carboxamide]
IC50 (Pim-1): ≤ 10 nM | IC50 (Pim-2): ≤ 100 nM | IC50 (Pim-3): ≤ 10 nM

C[C@@H]1C[C@H](N)C[C@H](c2ccncc2NC(=O)c2ccc(F)c3cc(N(C)C4CCC4)cnc23)C1 [Example 24, N-{4-[(1R,3S,5S)-3-Amino-5-methylcyclohexyl]pyridin-3-yl}-3-[cyclobutyl(methyl)amino]-5-fluoroquinoline-8-carboxamide]
IC50 (Pim-1): ≤ 10 nM | IC50 (Pim-2): 100 to 1000 nM | IC50 (Pim-3): ≤ 10 nM

C[C@@H]1C[C@H](N)C[C@H](c2ccncc2NC(=O)c2ccc(F)c3cc(N(C)c4ncccc4F)cnc23)C1 [Example 142, N-(4-((1R,3S,5S)-3-Amino-5-methylcyclohexyl)pyridin-3-yl)-5-fluoro-3-((3-fluoropyridin-2-yl)(methyl)amino)quinoline-8-carboxamide]
IC50 (Pim-1): ≤ 10 nM | IC50 (Pim-2): ≤ 100 nM | IC50 (Pim-3): ≤ 10 nM

C[C@@H]1C[C@H](N)C[C@H](c2ccncc2NC(=O)c2ccc(F)c3cc(N4CCN(C)CC4)cnc23)C1 [Example 30, N-{4-[(1R,3S,5S)-3-Amino-5-methylcyclohexyl]pyridin-3-yl}-5-fluoro-3-(4-methylpiperazin-1-yl)quinoline-8-carboxamide]
IC50 (Pim-1): ≤ 10 nM | IC50 (Pim-2): 100 to 1000 nM | IC50 (Pim-3): ≤ 10 nM

Cc1nccnc1N(C)c1cnc2c(C(=O)Nc3cnccc3[C@@H]3C[C@H](C)C[C@H](N)C3)ccc(F)c2c1 [Example 149, N-(4-((1R,3S,5S)-3-Amino-5-methylcyclohexyl)pyridin-3-yl)-5-fluoro-3-(methyl(3-methylpyrazin-2-yl)amino)quinoline-8-carboxamide]
IC50 (Pim-1): ≤ 10 nM | IC50 (Pim-2): ≤ 100 nM | IC50 (Pim-3): ≤ 10 nM

C[C@@H]1C[C@H](N)C[C@H](c2ccncc2NC(=O)c2ccc(F)c3cc(N(C)C4CCCC4C#N)cnc23)C1 (stereo partly drawn) [Example 140, N-(4-((1R,3S,5S)-3-Amino-5-methylcyclohexyl)pyridin-3-yl)-3-((2-cyanocyclopentyl)(methyl)amino)-5-fluoroquinoline-8-carboxamide]
IC50 (Pim-1): ≤ 10 nM | IC50 (Pim-2): ≤ 100 nM | IC50 (Pim-3): ≤ 10 nM

C[C@@H]1C[C@H](N)C[C@H](c2ccncc2NC(=O)c2ccc(F)c3cc(N(C)CCF)cnc23)C1 [Example 22, N-{4-[(1R,3S,5S)-3-Amino-5-methylcyclohexyl]pyridin-3-yl}-5-fluoro-3-[(2-fluoroethyl)(methyl)amino]quinoline-8-carboxamide]
IC50 (Pim-1): ≤ 10 nM | IC50 (Pim-2): ≤ 100 nM | IC50 (Pim-3): ≤ 10 nM

C[C@@H]1C[C@H](N)C[C@H](c2ccncc2NC(=O)c2ccc(F)c3cc(-c4c(F)cccc4F)nnc23)C1 [Example 91, N-{4-[(1R,3S,5S)-3-amino-5-methylcyclohexyl]pyridin-3-yl}-3-(2,6-difluorophenyl)-5-fluorocinnoline-8-carboxamide]
IC50 (Pim-1): ≤ 10 nM | IC50 (Pim-2): 1000 to 10000 nM | IC50 (Pim-3): 10 to 50 nM

C[C@@H]1C[C@H](N)C[C@H](c2ccncc2NC(=O)c2ccc(F)c3cc(N(C)CC4CC4)cnc23)C1 [Example 19, N-{4-[(1R,3S,5S)-3-Amino-5-methylcyclohexyl]pyridin-3-yl}-3-[(cyclopropylmethyl)(methyl)amino]-5-fluoroquinoline-8-carboxamide]
IC50 (Pim-1): ≤ 10 nM | IC50 (Pim-2): 100 to 1000 nM | IC50 (Pim-3): ≤ 10 nM

COC1CCN(c2cnc3c(C(=O)Nc4cnccc4[C@@H]4C[C@H](C)C[C@H](N)C4)ccc(F)c3c2)CC1 [Example 131, N-(4-((1R,3S,5S)-3-Amino-5-methylcyclohexyl)pyridin-3-yl)-5-fluoro-3-(4-methoxypiperidin-1-yl)quinoline-8-carboxamide]
IC50 (Pim-1): ≤ 10 nM | IC50 (Pim-2): 100 to 1000 nM | IC50 (Pim-3): ≤ 10 nM

C[C@@H]1C[C@H](N)C[C@H](c2ccncc2NC(=O)c2ccc(F)c3cc(C#CC4CC4)cnc23)C1 [Example 14, N-{4-[(1R,3S,5S)-3-Amino-5-methylcyclohexyl]pyridin-3-yl}-3-(cyclopropylethynyl)-5-fluoroquinoline-8-carboxamide]
IC50 (Pim-1): ≤ 10 nM | IC50 (Pim-2): 100 to 1000 nM | IC50 (Pim-3): ≤ 10 nM
